Assay results from US20140357563A1, “Compositions and Methods for the Generation of Activated Protein C and Methods of Use Thereof” (The Children's Hospital of Philadelphia, priority 2011, published 2014).
“Also recorded” adds a separate entry of the source.

What was measured:
[1] = tested on: thrombin (IIa)/thrombomodulin (TM) complex, TM+CS; experiment: In vitro aPC generation assay in solution, IIa/TM complex with TM containing chondroitin sulfate side chains (TM+CS, TMCS); type: biochemical, rabbit or human; settings: for effect of heparinoid on aPC generation with high doses of PF4 and histones: conditions simulating late sepsis; for effect of heparinoid on aPC generation at low levels of histones: histones 0-10 μg/ml, heparinoid 2, 5 or 10 μg/ml; for effect of heparinoid on aPC generation at low levels of histones / effect of heparinoid on aPC generation at higher levels of histones: FIG. 7; for effect of heparinoid on aPC generation at higher levels of histones: histones >10 μg/ml; for increase of aPC generation by PF4 in absence of histones: TMCS 0.5 nM, FIG. 6A
Experimental: (§1) Generation of aPC was assayed in 96-well plates as described previously (Slungaard et al. (1994) J. Biol. Chem., 269:25549-25556; Slungaard et al. (1993) J. Clin. Invest., 91:1721-1730). Briefly, thrombomodulin (TM) was mixed with various amounts of PF4 and/or heparin for 10 minutes in assay buffer (final concentration, 20 mM Tris, 100 mM NaCl, 1 mM CaCl2, 0.1% BSA, pH 7.5). Protein C (PC) was added for an additional 10 minutes followed by addition of thrombin (IIa) at a final concentration of either 0.2 or 2 nM and 15 minutes of incubation. All incubations were done at 37° C. Final concentrations of TM and PC were 0.5 nM and 500 nM, respectively.
Generation of aPC was assayed in 96-well plates generally as described above. Briefly, rabbit or human sTMCS or sTM−CS, was mixed with various amounts of histones, PF4 and/or heparinoid for 10 minutes in assay buffer (final concentration, 20 mM Tris, 100 mM NaCl, 1 mM CaCl2, 0.1% BSA, pH 7.5). Final concentrations of TMs were 0.5-40 nM. PC (final concentration, 500 nM) was added for an additional 10 minutes followed by addition of IIa at a final concentration of 0.2 or 2 nM and then incubated for 15 minutes. All incubations were done at 37° C. The reaction was quenched with 1 mM EDTA and 100 nM hirudin. Concentrations of aPC formed in the quenched samples were inferred from initial rate measurements after the addition of 0.5 mM S2366. Initial rates of chromogenic substrate cleavage were determined by measuring absorbance at 405 nm using a ThermoMax™ Microtiter Vmax® plate reader (Molecular Devices; Sunnyvale, Calif.).

[2] = tested on: thrombin (IIa)/thrombomodulin (TM) complex; experiment: In vitro aPC assay in solution, on human TM expressing HEK293 and on primary endothelial cells; type: cell-based
Experimental: as §1
To measure aPC formation, HEK-K293 cells stably expressing human TM on their surface cells were allowed to adhere overnight onto 24-well plates (5×10^5 cells/well) in DMEM/F12 media containing 10% FBS (Feistritzer et al. (2006) J. Biol. Chem., 281:20077-20084). Cells were washed twice with DMEM/F12 media followed by Dulbecco PBS. Various concentrations of PF4 or protamine sulfate (PRT) were incubated with cells for 10 minutes at 37° C. followed by the addition of PC and IIa, as described above. After incubation for 45 minutes, aliquots of the reaction mixture were transferred to 96-well plates and quenched by the addition of 1 mM EDTA and 100 nM hirudin. Generation of aPC was measured after the addition of 0.5 mM […] and determination of the initial rate of chromogenic substrate cleavage from absorbance measurements at 405 nm on a Thermomax™ Microtiter Vmax® plate reader (Molecular Devices).

plasma aPC = experiment: In vivo aPC generation measured in mouse plasma; settings: for effect of heparinoid on aPC generation after histones: histones 50 mg/kg
Experimental: Generation of aPC in vivo was assayed in plasma of mice as described (Kowalska et al. (2007) Blood 110:1903-1905). Mice were injected into the jugular vein. After 10 minutes, blood was drawn into sodium citrate/benzamidine (final concentration, 5 mM/50 mM, respectively), centrifuged for 10 minutes at 4500 g at 4° C., and plasma was frozen. Plasma aPC levels were subsequently measured by capture ELISA using antimouse aPC antibody and chromogenic substrate Spectrozyme® PCa (American Diagnostica) (Li et al. (2005) J. Thromb. Haemost., 3:1351-1359).
In vivo aPC generation was assayed in plasma of mice generally as described above. […] After 10 minutes, blood was drawn into sodium citrate/benzamidine (final concentration 5 mM/50 mM, respectively), centrifuged for 10 minutes at 5,000 rpm at 4° C. and plasma frozen. […] Some animals were pre-injected with UFH or ODSH 10 minutes before injection of histones. Plasma aPC levels were measured by capture ELISA (Li et al. (2005) J. Thromb. Haemost., 3:1351-1359) using an anti-mouse aPC antibody and chromogenic substrate Spectrozyme® PCa (American Diagnostica; Stamford, Conn.).

mice = experiment: Histone-induced lethality in mice; type: in vivo, mouse; settings: heparinoid 50 mg/kg, histones 75 mg/kg, WT mice
[3] = aPTT in mouse plasma after injection of heparinoids with or without histones; type: in vivo; settings: for severe prolongation of aPTT in presence of high (sub-lethal and lethal) concentrations of histones: heparinoid 50 mg/kg 10 minutes before histones, WT mice, FIG. 9B
Experimental: Blood was collected from cut tails 20 minutes after injection of heparinoids and aPTT measured in plasma. FIG. 9A: WT mice were injected with control buffer (at 0 mg/kg heparanoid concentrations) or UFH (dark squares) or ODSH (open triangles) at the concentrations indicated. FIG. 9B: WT mice were injected with control buffer (open circles) or 50 mg/kg of either UFH (black square) or ODSH (gray triangles) 10 minutes before injection of increasing concentrations of histones. N=5 mice per data point. Mean±1 SD are shown.

antithrombin = settings: Fryer et al. (1997); cited from earlier work
[4] = WT mice, heparinoid 50 mg/kg, FIG. 8

heparin
effect of heparin in absence of the GLA-domain of Protein C ([1]; Gla-domainless Protein C, TM+CS, FIG. 3E): did not have any effect
effect of heparin on histones/PF4 mediated aPC generation ([1]; TM+CS, PF4 50 μg/ml, histones 75 μg/ml, FIGS. 3B and 3C): first enhances aPC generation before a decrease in aPC generation
effect of UFH on peak aPC generation from histone plus PF4 ([1]; UFH 5 μg/ml, PF4 50 μg/ml, FIG. 6C): shifted to the right
effect of heparinoid on aPC generation with high doses of PF4 and histones [1]: enhanced aPC generation
effect of heparinoid on aPC generation at low levels of histones [1]: inhibited aPC generation
effect of heparin on aPC generation at below peak concentration of histones ([1]; histones 3 μg/ml, TM+CS, FIG. 2F): only decreased aPC generation
effect of heparinoid on aPC generation at higher levels of histones [1]: restored high levels of aPC generation
heparin concentration of optimal effect on aPC generation ([1]; histones present in excess (75 μg/ml), TM+CS, FIGS. 2E and 2F): 5 μg per ml
effect of heparin on aPC generation at low concentrations of PF4 ([2]; PF4 12.5 μg/ml, FIG. 1B): decreases aPC generation
effect of heparin on aPC generation at an excess of PF4 ([2]; PF4 400 μg/ml, FIG. 1B): shifts the curve back to the optimal PF4 concentration
effect of heparin on aPC generation at lower than optimal protamine sulfate concentration ([2]; PRT 1 μg/ml, FIG. 1D): only decreases aPC generation
effect of heparin on aPC generation at higher concentrations of PRT ([2]; PRT 20 μg/ml, FIG. 1D): a peak and then a decrease in aPC
effect of added heparin on histone curve for aPC generation ([2]; absence or presence of PF4): shifted the curve for aPC generation to the right
effect of heparinoid on aPC generation after histones (plasma aPC; [4]): suppressed detectable aPC generation
effect of heparinoid on histone lethality (mice): prevent these deaths
effect on aPTT in mice not exposed to histones ([3]; concentrations 10 and 100-times lower than needed to reverse histone lethality, FIG. 9A): marked prolongation of aPTT
severe prolongation of aPTT in presence of high (sub-lethal and lethal) concentrations of histones [3]: not by the UFH

platelet factor 4 [PF4]
potency on aPC activity compared with histones ([1]; FIGS. 2C and 2D): more potent than histones
increase of aPC generation by PF4 in absence of histones ([1]; PF4 3 μg/ml): > 3 fold
increase of aPC generation by PF4 in absence of histones ([1]; PF4 25 μg/ml): around 7 fold
PF4 concentration at peak of bell-shape curve of aPC generation ([2]; FIG. 1A): around 50 μg/ml
maximal increase of aPC generation ([2]; at peak of biphasic curve): ~6 times
PF4 concentration at peak of biphasic curve of aPC generation ([2]; in solution, human TM expressing HEK293, primary endothelial cells): around 25 μg/ml
effect of concurrently injected PF4 on plasma aPC (plasma aPC; PF4 knockout mice, PF4 5 mg/kg with IIa and histones, FIG. 4, 5 mg/kg): further increases the generation of aPC in plasma; also recorded: higher aPC levels

2-O, 3-O desulfated heparin [ODSH]
effect of heparinoid on aPC generation with high doses of PF4 and histones [1]: enhanced aPC generation
effect of heparinoid on aPC generation at low levels of histones [1]: inhibited aPC generation
effect of heparinoid on aPC generation at higher levels of histones [1]: restored high levels of aPC generation
effect of heparinoid on aPC generation after histones (plasma aPC; [4]): suppressed detectable aPC generation
aPC levels in mice pretreated with heparinoid (plasma aPC; heparinoid 50 mg/kg, histones 75 mg/kg, WT mice, FIG. 8): aPC levels were raised
effect of heparinoid on histone lethality (mice): prevent these deaths
severe prolongation of aPTT in presence of high (sub-lethal and lethal) concentrations of histones [3]: reversed
dose required to markedly prolong the aPTT ([3]; non-histone treated mice, FIG. 9A): the same as needed to reverse histone lethality
antithrombin activity, fold less (antithrombin): ~60 fold

protamine sulfate [PRT]
shape of aPC generation versus protamine sulfate concentration ([2]; FIG. 1C): bell-shape curve
